Results on twelve compounds are retold here after patent US11987586B1 (TAKEDA PHARMACEUTICAL COMPANY LIMITED, priority 2022, dated 2024).

In one test the target is T1, human OX2 receptor (Homo sapiens, UniProt O43614).
T1 construct: expressed in transfected cells
T1 sequence (O43614 1-444): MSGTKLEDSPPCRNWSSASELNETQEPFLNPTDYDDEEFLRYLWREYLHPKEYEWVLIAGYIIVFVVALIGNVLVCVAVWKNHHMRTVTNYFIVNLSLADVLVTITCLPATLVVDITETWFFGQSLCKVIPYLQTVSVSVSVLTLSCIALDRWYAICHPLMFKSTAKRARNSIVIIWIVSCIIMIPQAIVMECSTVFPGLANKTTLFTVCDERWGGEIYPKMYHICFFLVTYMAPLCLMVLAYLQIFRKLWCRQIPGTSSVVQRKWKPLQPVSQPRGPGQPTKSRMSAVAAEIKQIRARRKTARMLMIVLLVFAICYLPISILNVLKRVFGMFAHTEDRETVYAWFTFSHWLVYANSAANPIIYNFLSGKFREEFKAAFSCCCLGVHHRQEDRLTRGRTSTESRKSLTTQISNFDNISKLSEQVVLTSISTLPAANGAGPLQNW
As to the kind of experiment: Measurement of orexin type 2 receptor agonist activity (calcium fluorescence, Fluo-4, FDSS). The format is cell-based. To be noted: 3 uM test compound; CHO cells expressing human OX2 receptor; DMSO = 0%, 10 nM orexin A (human) = 100%. The essentials:
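Agonist activity (%) was normalised to the response to 10 nM final human orexin A (100%) and to the DMSO vehicle (0%). The response was measured as the Fluo-4 calcium signal, read kinetically over 1 min 40 s after compound addition to Fluo-4/probenecid-loaded stable CHO-K1 clones expressing human OX2 (aa 1-444).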

A further test relates to cynomolgus monkeys. As to the kind of experiment: Evaluation of wake-promoting effects in cynomolgus monkeys (EEG, EMG, locomotor activity). Type of test: in vivo, cynomolgus monkey. The note with it: Macaca fascicularis, po, p.o., at zeitgeber time 12, 4 hours after administration, male cynomolgus monkeys, read-out: Wakefulness time (% of vehicle treatment) (Mean, n = 2-4). How it is done:
The wake-promoting effects were evaluated by measuring the electroencephalogram (EEG), electromyogram (EMG) and locomotor activity in cynomolgus monkeys. Under isoflurane anesthesia (0.5-5%, Pfizer Japan Inc., Tokyo, Japan), male cynomolgus monkeys (2-3 years old, Hamri Co., Ltd., Ibaraki, Japan) were surgically implanted with radio-telemetry transmitters (L03-F3, Data Sciences International Inc., MN, USA). The two EEG electrodes were stereotaxically positioned at the parietal area and secured to the cranium with stainless-steel screws in contact with the dura. Bilateral EMG electrodes were implanted into the back cervical muscles. After at least a 1-month recovery period in home cages, the monkeys were habituated to the recording chamber (an acrylic cage 60W×55D×75H (cm)) located in a soundproof and electrically shielded room by the time animals sleep sufficiently in the experimental room. Cortical EEG, EMG and locomotor activity were recorded using the telemetry system (PhysioTel Digital telemetry platform, Data Sciences International Inc.). The signals were semi-automatically scored in 20-second epochs by a sleep scoring system (SleepSign, Kissei Comtec Co., Ltd., Nagano, Japan).
Test compound (1 or 3 mg/kg) suspended in 0.5% methylcellulose aqueous solution or vehicle (i.e., 0.5% methylcellulose aqueous solution) was administered orally (p.o.) to monkeys at zeitgeber time 12 in a volume of 5 mL/kg body weight with a pretest-posttest design (n=2-4), and then EEG, EMG and locomotor activity were recorded for 4 hours after administration. The time spent in wakefulness for 4 hours after administration (% of vehicle treatment) was calculated by using SleepSign.

`CS(=O)(=O)N[C@@H]1Cn2c(cn(-c3noc4cc(F)c(F)c(-c5c(F)cccc5F)c34)c2=O)C1(F)F` [Example 142, N-{(6R)-2-[4-(2,6-difluorophenyl)-5,6-difluoro-1,2-benzoxazol-3-yl]-7,7-difluoro-3-oxo-2,5,6,7-tetrahydro-3H-pyrrolo[1,2-c]imidazol-6-yl}methanesulfonamide]: on human OX2 receptor, the “OX2R agonist activity (3 uM, %)” value turned out to be 99%. Besides, in the test with cynomolgus monkeys, the response vs control in vivo at 1 mg/kg is 690%.
In the same order, the values of `CS(=O)(=O)N[C@@H]1CN2C(=O)N(c3noc4cc(F)cc(-c5c(F)cc(F)cc5F)c34)C[C@@H]2C1(F)F` [Example 149, N-{(6R,7aR)-7,7-Difluoro-2-[6-fluoro-4-(2,4,6-trifluorophenyl)-1,2-benzoxazol-3-yl]-3-oxohexahydro-1H-pyrrolo[1,2-c]imidazol-6-yl}methanesulfonamide] are 95% and 731%.
The like results for `CS(=O)(=O)N[C@@H]1CN2C(=O)N(c3noc4cc(F)c(F)c(-c5c(F)cc(F)cc5F)c34)CC[C@@H]2C1(F)F` [Example 243, N-{(4aR,6R)-2-[5,6-difluoro-4-(2,4,6-trifluorophenyl)-1,2-benzoxazol-3-yl]-5,5-difluoro-1-oxooctahydropyrrolo[1,2-c]pyrimidin-6-yl}methanesulfonamide] were, in that order, 109% and 618%.
Regarding `CCS(=O)(=O)N[C@H]1C[C@H]2CN(c3noc4cccc(-c5c(F)cccc5F)c34)C(=O)N2C1` [Example 1, N-{(6S,7aS)-2-[4-(2,6-Difluorophenyl)-1,2-benzoxazol-3-yl]-3-oxohexahydro-1H-pyrrolo[1,2-c]imidazol-6-yl}ethanesulfonamide], at human OX2 receptor, the “OX2R agonist activity (3 uM, %)” value turned out to be 104%. The response vs control in vivo at 3 mg/kg in the test on cynomolgus monkeys (3 mg/kg) amounted to 383%.
Turning to `CS(=O)(=O)N[C@@H]1CN2C(=O)N(c3noc4ccc(F)c(-c5c(F)cccc5F)c34)CC[C@@H]2C1(F)F` [Example 265, N-{(4aR,6R)-2-[4-(2,6-difluorophenyl)-5-fluoro-1,2-benzoxazol-3-yl]-5,5-difluoro-1-oxooctahydropyrrolo[1,2-c]pyrimidin-6-yl}methanesulfonamide], the “OX2R agonist activity (3 uM, %)” value on human OX2 receptor turned out to be 107%. In the test with cynomolgus monkeys, the response vs control in vivo at 1 mg/kg was 472%.
Regarding `CCS(=O)(=O)N[C@@H]1Cn2c(cn(-c3noc4cc(F)cc(-c5c(F)cccc5F)c34)c2=O)C1(F)F` [Example 282, N-{(6R)-2-[4-(2,6-difluorophenyl)-6-fluoro-1,2-benzoxazol-3-yl]-7,7-difluoro-3-oxo-2,5,6,7-tetrahydro-3H-pyrrolo[1,2-c]imidazol-6-yl}ethanesulfonamide], the “OX2R agonist activity (3 uM, %)” value on human OX2 receptor is 105%. In addition, the response vs control in vivo at 1 mg/kg with cynomolgus monkeys was 418%.
In the same order, the values of `CCS(=O)(=O)N[C@H]1C[C@H]2CN(c3noc4cc(Cl)cc(-c5c(F)cccc5F)c34)C(=O)N2C1` [Example 50, N-{(6S,7aS)-2-[6-Chloro-4-(2,6-difluorophenyl)-1,2-benzoxazol-3-yl]-3-oxohexahydro-1H-pyrrolo[1,2-c]imidazol-6-yl}ethanesulfonamide] are 103% and 176%.
In the same order, the values of `CS(=O)(=O)N[C@@H]1Cn2c(cn(-c3noc4ccc(F)c(-c5c(F)cc(F)cc5F)c34)c2=O)C1(F)F` [Example 77, N-{(6R)-7,7-Difluoro-2-[5-fluoro-4-(2,4,6-trifluorophenyl)-1,2-benzoxazol-3-yl]-3-oxo-2,5,6,7-tetrahydro-3H-pyrrolo[1,2-c]imidazol-6-yl}methanesulfonamide] are 100% and 645%.
The like results for `CS(=O)(=O)N[C@@H]1CN2C(=O)N(c3noc4cccc(-c5c(F)cc(F)cc5F)c34)CC[C@@H]2C1(F)F` [Example 213, N-{(4aR,6R)-5,5-Difluoro-1-oxo-2-[4-(2,4,6-trifluorophenyl)-1,2-benzoxazol-3-yl]octahydropyrrolo[1,2-c]pyrimidin-6-yl}methanesulfonamide] were, in that order, 104% and 447%.
On to `CS(=O)(=O)N[C@@H]1Cn2c(cn(-c3noc4cccc(-c5c(F)cc(F)cc5F)c34)c2=O)C1(F)F` [Example 16, N-{(6R)-7,7-Difluoro-3-oxo-2-[4-(2,4,6-trifluorophenyl)-1,2-benzoxazol-3-yl]-2,5,6,7-tetrahydro-3H-pyrrolo[1,2-c]imidazol-6-yl}methanesulfonamide], for which the “OX2R agonist activity (3 uM, %)” value at human OX2 receptor was found to be 107%. Moreover, the response vs control in vivo at 1 mg/kg with cynomolgus monkeys was found to be 546%.
In the same order, the values of `CS(=O)(=O)N[C@@H]1CN2C(=O)N(c3noc4cccc(-c5c(F)cc(F)cc5F)c34)C[C@@H]2C1(F)F` [Example 71, N-{(6R,7aR)-7,7-Difluoro-3-oxo-2-[4-(2,4,6-trifluorophenyl)-1,2-benzoxazol-3-yl]hexahydro-1H-pyrrolo[1,2-c]imidazol-6-yl}methanesulfonamide] are 97% and 703%.
The like results for `CCS(=O)(=O)N[C@@H]1CN2C(=O)N(c3noc4cccc(-c5c(F)cc(F)cc5F)c34)C[C@@H]2C1(F)F` [Example 24, N-{(6R,7aR)-7,7-Difluoro-3-oxo-2-[4-(2,4,6-trifluorophenyl)-1,2-benzoxazol-3-yl]hexahydro-1H-pyrrolo[1,2-c]imidazol-6-yl}ethanesulfonamide] were, in that order, 104% and 393%.
